Data set [1] is described as follows: Lipophilicity, logD of compound at pH 7.5. The note with it: buffer. In kind it is physicochemical.
Another data set addresses Keap1/Nrf2 (Homo sapiens, UniProt Q14145).

Chain of Keap1/Nrf2 (Q16236 whole entry): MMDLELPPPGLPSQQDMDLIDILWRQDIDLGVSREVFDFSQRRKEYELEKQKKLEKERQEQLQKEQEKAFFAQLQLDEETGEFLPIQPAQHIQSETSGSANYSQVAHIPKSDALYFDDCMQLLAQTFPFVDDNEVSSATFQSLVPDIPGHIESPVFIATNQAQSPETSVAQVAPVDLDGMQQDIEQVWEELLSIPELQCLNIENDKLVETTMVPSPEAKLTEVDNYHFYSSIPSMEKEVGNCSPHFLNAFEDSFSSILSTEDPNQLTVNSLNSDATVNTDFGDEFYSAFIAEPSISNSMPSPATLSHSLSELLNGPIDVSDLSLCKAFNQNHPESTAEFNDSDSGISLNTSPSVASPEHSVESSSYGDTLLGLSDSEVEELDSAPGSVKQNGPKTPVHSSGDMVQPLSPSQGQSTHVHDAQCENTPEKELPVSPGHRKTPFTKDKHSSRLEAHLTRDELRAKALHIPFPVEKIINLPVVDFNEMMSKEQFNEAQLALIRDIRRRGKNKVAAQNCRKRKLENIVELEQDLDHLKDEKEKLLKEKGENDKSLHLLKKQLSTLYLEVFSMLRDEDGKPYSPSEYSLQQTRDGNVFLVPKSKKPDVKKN
Chain of Keap1/Nrf2 (Q14145 whole entry): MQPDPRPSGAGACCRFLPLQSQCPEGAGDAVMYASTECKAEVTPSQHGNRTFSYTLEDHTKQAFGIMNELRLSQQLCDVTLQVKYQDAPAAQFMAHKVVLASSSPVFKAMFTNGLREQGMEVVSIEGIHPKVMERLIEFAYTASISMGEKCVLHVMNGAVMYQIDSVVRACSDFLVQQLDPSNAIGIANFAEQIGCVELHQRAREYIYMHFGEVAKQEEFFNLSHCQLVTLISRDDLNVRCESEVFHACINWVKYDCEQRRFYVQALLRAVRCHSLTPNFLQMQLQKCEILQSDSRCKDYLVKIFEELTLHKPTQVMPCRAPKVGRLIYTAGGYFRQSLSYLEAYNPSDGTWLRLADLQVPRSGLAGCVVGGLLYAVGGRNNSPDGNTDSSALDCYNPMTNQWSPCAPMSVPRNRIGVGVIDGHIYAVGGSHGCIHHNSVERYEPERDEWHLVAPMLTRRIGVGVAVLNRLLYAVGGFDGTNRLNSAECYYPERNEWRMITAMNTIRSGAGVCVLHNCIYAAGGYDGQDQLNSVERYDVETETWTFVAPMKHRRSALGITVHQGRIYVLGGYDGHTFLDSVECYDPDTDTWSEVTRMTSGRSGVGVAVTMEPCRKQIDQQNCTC

In turn, `CC(=O)N1CCC[C@H]1C(=O)N[C@@H]1COC(=O)c2ccccc2CSC[C@H](C(=O)N(C)C)NC1=O` yielded a logD in data set [1] of 0.43.

`CC(=O)N1CCC[C@H]1C(=O)N[C@@H]1CNC(=O)c2ccccc2COC[C@H](C(=O)N(C)C)NC1=O` registered a Kd on Keap1/Nrf2 of over 500 µM.

The values above are taken from ChEMBL document CHEMBL5042541 (J Med Chem, 2022).
